Values quoted from earlier work in PubChem BioAssay AID1259409 (Chemical Carcinogenesis Research Information System (CCRIS), 2018).

System: rodent chemically induced tumor inhibition, incidence and multiplicity
Assay: CCRIS tumor inhibitor studies
Settings: for tumour outcome (control, treated, inhibition, significance): Promoter: NONE USED; for outcome: Carcinogen: 7,12-Dimethylbenz[a]anthracene, 57-97-6 and 12-O-Tetradecanoylphorbol-13-acetate, 16561-29-8, Dose [Inhibitor]: 50 ug/ml in acetone by topical application starting on the 16th wk and continuing to end of study (study duration: 30 wk, Route [Inhibitor]: Skin, Species: Mouse, Strain/Sex: Albino/Sex not given, Target Tissue: Type of Lesion: Skin, Dose [Carcinogen]: DMBA in acetone, 100 ug/ml, single topical dose, TPA in acetone, 10 ug/ml, topical administration twice a wk for 15 wk

For CC1=C(/C=C/C(C)=C/C=C/C(C)=C\C(=O)O)C(C)(C)CCC1, the “tumour outcome (control, treated, inhibition, significance)” value (Carcinogen: 1,2-DIMETHYLHYDRAZINE, 540-73-8, Dose [Inhibitor]: 67 µM/G DIET, Route [Inhibitor]: ORAL, Species: RAT, Strain/Sex: SPRAGUE-DAWLEY/MALE, Target Tissue: Type of Lesion: COLON: TUMOR, Dose [Carcinogen]: 30 MG/KG BW 1/WK FOR 5 WK) is listed as 20/20 (100%), 8/20 (40%), 60%, not calculated, the “tumour outcome (control, treated, inhibition, significance)” value (Carcinogen: 1,2-DIMETHYLHYDRAZINE, 5400-73-8, Dose [Inhibitor]: 67 UG/G DIET FED SIMULTANEOUSLY DURING CARCINOGEN TREATMENT (STUDY DURATION: 46 WK), Route [Inhibitor]: ORAL, Species: RAT, Strain/Sex: WISTAR/FEMALE, Target Tissue: Type of Lesion: COLON: ADENOCARCINOMA, Dose [Carcinogen]: 15 MG/KG BW/WK FOR 28 WK) is listed as 8/12 (67%), 5/10 (50%), 25%, not significant and the “tumour outcome (control, treated, inhibition, significance)” value (Carcinogen: 1,2-DIMETHYLHYDRAZINE, 5400-73-8, Dose [Inhibitor]: 67 UG/G DIET FED SIMULTANEOUSLY DURING CARCINOGEN TREATMENT (STUDY DURATION: 46 WK), Route [Inhibitor]: ORAL, Species: RAT, Strain/Sex: WISTAR/FEMALE, Target Tissue: Type of Lesion: SMALL INTESTINE: ADENOCARCINOMA, Dose [Carcinogen]: 15 MG/KG BW/WK FOR 28 WK) is listed as 8/12 (67%), 9/10 (90%), -34%, not significant. The “tumour outcome (control, treated, inhibition, significance)” value (Carcinogen: 3-METHYLCHOLANTHRENE, 56-49-5, Dose [Inhibitor]: 3 MG IN 0.1 ML ACETONE STARTING 2 WK AFTER START OF CARCINOGEN TREATMENT AND APPLIED 2/WK DURING WK 3-5 OF THE STUDY AND, Route [Inhibitor]: DERMAL, Species: MOUSE, Strain/Sex: SWISS/FEMALE, Target Tissue: Type of Lesion: SKIN: CARCINOMA, Dose [Carcinogen]: 0.1 ML OF 0.3% DISSOLVED IN ACETONE APPLIED 2/WK FIRST 5 WK THEN 1/WK FOR WK 6-9 FOLLOWED BY NO FURTHER TREATMENT THROUG) was 5/19 (26%), 2/20 (10%), 62%, not calculated, the “tumour outcome (control, treated, inhibition, significance)” value (Carcinogen: 3-METHYLCHOLANTHRENE, 56-49-5, Dose [Inhibitor]: 3 MG IN 0.1 ML ACETONE STARTING 2 WK AFTER START OF CARCINOGEN TREATMENT AND APPLIED 2/WK DURING WK 3-5 OF THE STUDY AND, Route [Inhibitor]: DERMAL, Species: MOUSE, Strain/Sex: SWISS/FEMALE, Target Tissue: Type of Lesion: SKIN: PAPILLOMA, Dose [Carcinogen]: 0.1 ML OF 0.3% DISSOLVED IN ACETONE APPLIED 2/WK FIRST 5 WK THEN 1/WK FOR WK 6-9 FOLLOWED BY NO FURTHER TREATMENT THROUG) was 9/19 (47%), 4/20 (20%), 57%, not calculated and the outcome was “malignant lesions: 4/20 (20%), 4/20 (20%), not significant”. The outcome (Promoter: None) was “malignant lesions: 5/20 (20%), 4/20 (20%), not significant”, the “tumour outcome (control, treated, inhibition, significance)” value (Carcinogen: AZOXYMETHANE, 25843-45-2, Dose [Inhibitor]: 50 MG/KG DIET DAILY STARTING SIMULTANEOUSLY WITH CARCINOGEN TREATMENT AND CONTINUING THROUGH END OF STUDY (STUDY DURATIO, Route [Inhibitor]: ORAL, Species: RAT, Strain/Sex: SPRAGUE-DAWLEY/MALE, Target Tissue: Type of Lesion: LARGE INTESTINE: MALIGNANT TUMOR, Dose [Carcinogen]: 8 MG/KG BW 1/WK FOR 8 WK) was 90%, 90%, 0%, not significant and the “tumour outcome (control, treated, inhibition, significance)” value (Carcinogen: AZOXYMETHANE, 25843-45-2, Dose [Inhibitor]: 50 MG/KG DIET DAILY STARTING SIMULTANEOUSLY WITH CARCINOGEN TREATMENT AND CONTINUING THROUGH END OF STUDY (STUDY DURATIO, Route [Inhibitor]: ORAL, Species: RAT, Strain/Sex: SPRAGUE-DAWLEY/MALE, Target Tissue: Type of Lesion: SMALL INTESTINE: MALIGNANT TUMOR, Dose [Carcinogen]: 8 MG/KG BW 1/WK FOR 8 WK) was 90%, 83%, 8%, not significant. The “tumour outcome (control, treated, inhibition, significance)” value (Carcinogen: AZOXYMETHANE, 25843-45-2, Dose [Inhibitor]: 50 MG/KG IN DIET DAILY FOR 26 WK STARTING SIMULTANEOUSLY WITH CARCINOGEN TREATMENT (STUDY DURATION: 26 WK), Route [Inhibitor]: ORAL, Species: RAT, Strain/Sex: SPRAGUE-DAWLEY/MALE, Target Tissue: Type of Lesion: LARGE INTESTINE: MALIGNANT TUMOR, Dose [Carcinogen]: 8 MG/KG BW 1/WK FOR 8 WK) was 90%, 90%, 0%, not significant.
